Data reported in patent publication US9096548B2, “Pyrazine amide compounds” (Boehringer Ingelheim International GmbH, priority 2013, dated 2015).
Counter-ions that a name gives are not always drawn.

biological target: T1, ENaC (Epithelial Sodium Channel) (Mus musculus, UniProt Q61180+Q9WU38+Q9WU39); assay: Ussing Chamber assay (short circuit current, amiloride sensitive I_SC); assay type: cell-based; conditions: Ussing chamber, mouse kidney M-1 cells, short circuit current, compound added to the apical solution; read-out: IC50
T1 construct: Mouse kidney M−1 cells were cultivated in DMEM; endogenous in cells; host or cells: Mouse kidney M-1 cells, cultivated with dexamethasone on transwell filters
T1 sequence (Q61180 1-699): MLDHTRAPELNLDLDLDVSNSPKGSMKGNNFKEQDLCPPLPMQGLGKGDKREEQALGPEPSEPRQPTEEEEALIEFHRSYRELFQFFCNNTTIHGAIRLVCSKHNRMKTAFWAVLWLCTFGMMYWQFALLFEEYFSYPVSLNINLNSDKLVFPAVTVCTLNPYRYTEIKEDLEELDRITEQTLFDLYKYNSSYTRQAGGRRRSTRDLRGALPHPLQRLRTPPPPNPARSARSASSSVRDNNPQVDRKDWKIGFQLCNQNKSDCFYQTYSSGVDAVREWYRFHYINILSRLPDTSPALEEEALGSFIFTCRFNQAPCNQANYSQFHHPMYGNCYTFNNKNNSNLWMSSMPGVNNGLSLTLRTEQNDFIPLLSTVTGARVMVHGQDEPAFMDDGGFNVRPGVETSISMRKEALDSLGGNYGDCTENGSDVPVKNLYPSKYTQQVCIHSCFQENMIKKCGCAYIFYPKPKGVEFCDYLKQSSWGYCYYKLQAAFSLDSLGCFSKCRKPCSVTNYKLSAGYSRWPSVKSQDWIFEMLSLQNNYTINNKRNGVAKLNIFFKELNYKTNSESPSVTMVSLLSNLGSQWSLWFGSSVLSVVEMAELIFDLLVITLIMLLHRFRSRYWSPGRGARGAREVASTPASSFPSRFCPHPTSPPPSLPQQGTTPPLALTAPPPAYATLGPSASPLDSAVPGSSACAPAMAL
T1 sequence (Q9WU38 1-638): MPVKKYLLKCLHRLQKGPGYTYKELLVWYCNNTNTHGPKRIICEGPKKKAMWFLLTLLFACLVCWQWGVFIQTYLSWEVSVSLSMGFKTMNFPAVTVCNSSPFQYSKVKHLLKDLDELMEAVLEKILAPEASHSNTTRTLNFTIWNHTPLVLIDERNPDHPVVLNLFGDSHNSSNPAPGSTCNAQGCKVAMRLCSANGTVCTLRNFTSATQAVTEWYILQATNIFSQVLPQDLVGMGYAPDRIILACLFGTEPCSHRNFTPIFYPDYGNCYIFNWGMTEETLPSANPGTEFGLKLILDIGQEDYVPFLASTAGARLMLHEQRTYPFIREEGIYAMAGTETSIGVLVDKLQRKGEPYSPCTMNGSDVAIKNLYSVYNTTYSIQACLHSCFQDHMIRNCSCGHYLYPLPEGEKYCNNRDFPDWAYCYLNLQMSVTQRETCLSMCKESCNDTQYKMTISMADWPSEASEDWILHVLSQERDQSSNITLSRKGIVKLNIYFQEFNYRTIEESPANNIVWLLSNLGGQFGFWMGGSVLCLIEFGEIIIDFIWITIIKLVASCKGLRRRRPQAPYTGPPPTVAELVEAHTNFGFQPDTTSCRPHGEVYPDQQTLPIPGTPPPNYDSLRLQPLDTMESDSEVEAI
T1 sequence (Q9WU39 1-655): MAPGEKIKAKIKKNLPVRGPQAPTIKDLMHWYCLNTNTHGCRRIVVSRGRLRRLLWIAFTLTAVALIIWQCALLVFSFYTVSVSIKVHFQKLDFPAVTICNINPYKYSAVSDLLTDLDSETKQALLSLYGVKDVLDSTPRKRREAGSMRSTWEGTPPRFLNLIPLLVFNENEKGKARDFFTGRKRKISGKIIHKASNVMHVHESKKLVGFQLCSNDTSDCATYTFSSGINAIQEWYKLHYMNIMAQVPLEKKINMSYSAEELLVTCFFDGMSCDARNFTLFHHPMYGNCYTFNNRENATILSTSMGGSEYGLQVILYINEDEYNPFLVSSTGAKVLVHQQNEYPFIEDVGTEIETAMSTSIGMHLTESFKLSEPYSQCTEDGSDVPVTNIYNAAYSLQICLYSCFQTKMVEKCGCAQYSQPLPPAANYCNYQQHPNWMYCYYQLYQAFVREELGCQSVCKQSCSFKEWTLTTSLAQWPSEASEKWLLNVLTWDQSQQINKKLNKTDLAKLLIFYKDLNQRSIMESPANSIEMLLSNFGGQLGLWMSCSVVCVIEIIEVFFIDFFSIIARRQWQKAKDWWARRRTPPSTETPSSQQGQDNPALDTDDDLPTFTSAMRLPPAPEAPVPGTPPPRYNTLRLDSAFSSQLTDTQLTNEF
Method: The IC50 values of the example compounds given above were determined in the Ussing Chamber assay.
Ussing Chamber: Mouse kidney M−1 cells were cultivated in DMEM containing 5% FCS and 5 μM dexamethasone for 10 to 12 days on polyester transwell filters. Filters were inserted into a teflon-coated well-plate which fit into the ussing chamber system. Prior to measurement the medium of M−1 cells was replaced with Caco-2 transport buffer (Invitrogen, Germany). During measurements, the Ussing chamber temperature was kept at 37° C. Short circuit currents (I_sc) were measured in the voltage-clamp mode with the software package Lab View for data acquisition and analysis. The transepithelial electrical resistance (TEER) was determined by the application of voltage steps of ±5 mV every 5 sec. Compounds were administered at a final concentration of 3 μM or at increasing concentrations (1-3-10 μM) to the apical solution. At the end of each experiment the amiloride sensitive I_SC was measured by adding 3 μM amiloride to the apical compartment. Results are expressed as inhibition in percent of the amiloride effect or as IC50.

| Compound | IC50 |
| --- | --- |
| COc1ccc(CCC[N+]2(CCCc3ccc(C(=O)N(CCCN(C)C)CCCN(C)C)cc3)CCCC(NC(=O)c3nc(Cl)c(N)nc3N)C2)cc1 (stereo not shown) [Example 5.3] | 0.055 µM |
| COc1ccc(CCC[N+]2(CCCc3ccc(C(=O)NCCCS(=O)(=O)O)cc3)CCCC(NC(=O)c3nc(Cl)c(N)nc3N)C2)cc1 (stereo not shown) [Example 5.4] | 0.26 µM |
| COc1ccc(CCC[N+]2(CCCc3ccc(C(=O)NCCOCCOCCO)cc3)CCCC(NC(=O)c3nc(Cl)c(N)nc3N)C2)cc1 (stereo not shown) [Example 5.5] | 0.07 µM |
| COc1ccc(CCC[N+]2(CCCc3ccc(C(N)=O)cc3)CCCC(NC(=O)c3nc(Cl)c(N)nc3N)C2)cc1 (stereo not shown) [Example 5.6] | 0.025 µM |
| COc1ccc(CCC[N+]2(CCCc3ccc(C(=O)NCCCN(C)C)cc3)CCCC(NC(=O)c3nc(Cl)c(N)nc3N)C2)cc1 (stereo not shown) [Example 5.7] | 0.02 µM |
| COC(=O)CCNC(=O)c1ccc(CCC[N+]2(CCCc3ccc(OC)cc3)CCCC(NC(=O)c3nc(Cl)c(N)nc3N)C2)cc1 (stereo not shown) [Example 5.8] | 0.024 µM |

More lines, now with the values ahead:

| IC50 | Compound |
| --- | --- |
| 0.072 µM | NC(=O)COc1ccc(CCC[N+]2(CCCc3ccc(OCC(N)=O)cc3)CCCC(NC(=O)c3nc(Cl)c(N)nc3N)C2)cc1 (stereo not shown) [Example 6.4] |
| 0.05 µM | CN(C)CCNC(=O)COc1ccc(CCC[N+]2(CCCc3ccc(OCC(=O)NCCN(C)C)cc3)CCCC(NC(=O)c3nc(Cl)c(N)nc3N)C2)cc1 (stereo not shown) [Example 6.5] |
| 0.068 µM | C[N+](C)(C)CCNC(=O)COc1ccc(CCC[N+]2(CCCc3ccc(OCC(=O)NCC[N+](C)(C)C)cc3)CCCC(NC(=O)c3nc(Cl)c(N)nc3N)C2)cc1 (stereo not shown) [Example 6.6] |
| 0.031 µM | CN(C)CCCNC(=O)COc1ccc(CCC[N+]2(CCCc3ccc(OCC(=O)NCCCN(C)C)cc3)CCCC(NC(=O)c3nc(Cl)c(N)nc3N)C2)cc1 (stereo not shown) [Example 6.7] |
| 0.041 µM | CN(C)CCCN(C)C(=O)COc1ccc(CCC[N+]2(CCCc3ccc(OCC(=O)N(C)CCCN(C)C)cc3)CCCC(NC(=O)c3nc(Cl)c(N)nc3N)C2)cc1 (stereo not shown) [Example 6.8] |
| 0.065 µM | CN(C)CCN(C)C(=O)COc1ccc(CCC[N+]2(CCCc3ccc(OCC(=O)N(C)CCN(C)C)cc3)CCCC(NC(=O)c3nc(Cl)c(N)nc3N)C2)cc1 (stereo not shown) [Example 6.9] |
| 0.068 µM | C[N+](C)(C)CCNC(=O)COc1ccc(CCC[N+]2(CCCc3ccc(OCC(=O)NCC[N+](C)(C)C)cc3)CCC[C@H](NC(=O)c3nc(Cl)c(N)nc3N)C2)cc1 [Example 6.10] |
| 0.045 µM | COC(=O)COc1ccc(CCC[N+]2(CCCc3ccc(OCC(=O)OC)cc3)CCC[C@H](NC(=O)c3nc(Cl)c(N)nc3N)C2)cc1 [Example 6.11] |
| 0.134 µM | CN(C)C(=O)COc1ccc(CCC[N+]2(CCCc3ccc(OCC(=O)N(C)C)cc3)CCC[C@H](NC(=O)c3nc(Cl)c(N)nc3N)C2)cc1 [Example 6.12] |
| 0.015 µM | CN1CCC(NC(=O)COc2ccc(CCC[N+]3(CCCc4ccc(OCC(=O)NC5CCN(C)CC5)cc4)CCC[C@H](NC(=O)c4nc(Cl)c(N)nc4N)C3)cc2)CC1 [Example 6.13] |
| 0.045 µM | CN(C)CCNC(=O)COc1ccc(CCC[N+]2(CCCc3ccc(OCC(=O)NCCN(C)C)cc3)CCC[C@H](NC(=O)c3nc(Cl)c(N)nc3N)C2)cc1 [Example 6.14] |

same assay, conditions: Ussing chamber, mouse kidney M-1 cells, short circuit current; unit inferred; read-out: IC50

| IC50 | Compound |
| --- | --- |
| 0.15 µM | COc1ccc(CCC[N+]2(CCCc3ccc(C(=O)NCCC(=O)O)cc3)CCCC(NC(=O)c3nc(Cl)c(N)nc3N)C2)cc1 (stereo not shown) [Example 5.10, 1-{3-[4-(Carboxyethyl-carbamoyl)-phenyl]-propyl}-3-[(3,5-diamino-6-chloro-pyrazine-2-carbonyl)-amino]-1-[3-(4-methoxy-phenyl)-propyl]-piperidinium chloride] |
| 0.103 µM | Nc1nc(N)c(C(=O)NC2CCC[N+](CCCc3ccc(OCC(=O)NCCOCCOCCO)cc3)(CCCc3ccc(OCC(=O)NCCOCCOCCO)cc3)C2)nc1Cl (stereo not shown) [Example 6.3, 3-[(3,5-Diamino-6-chloro-pyrazine-2-carbonyl)-amino]-1,1-bis-{3-[4-({2-[2-(2-hydroxyethoxy)-ethoxy]-ethylcarbamoyl}-methoxy)-phenyl]-propyl}-piperidinium trifluoroacetate] |

same assay, conditions: Ussing chamber, mouse kidney M-1 cells, short circuit current; value printed in the example text with μM; read-out: IC50

| IC50 | Compound |
| --- | --- |
| 0.76 µM | Nc1nc(N)c(C(=O)NC2CCC[N+](CCCc3ccc(C(=O)NCCOCCOCCO)cc3)(CCCc3ccc(C(=O)NCCOCCOCCO)cc3)C2)nc1Cl (stereo not shown) [Example 4.2, 3-[(3,5-Diamino-6-chloro-pyrazine-2-carbonyl)-amino]-1,1-bis-[3-(4-{2-[2-(2-hydroxyethoxy)-ethoxy)]-ethylcarbamoyl}-phenyl)-propyl]-piperidinium chloride] |
| 0.038 µM | COC(=O)c1ccc(CCC[N+]2(CCCc3ccc(OC)cc3)CCCC(NC(=O)c3nc(Cl)c(N)nc3N)C2)cc1 (stereo not shown) [Example 5, 3-[(3,5-Diamino-6-chloro-pyrazine-2-carbonyl)-amino]-1-[3-(4-methoxycarbonyl-phenyl)propyl]-1-[3-(4-methoxy-phenyl)-propyl]-piperidinium chloride] |
| 0.11 µM | COc1ccc(CCC[N+]2(CCCc3ccc(C(=O)[O-])cc3)CCCC(NC(=O)c3nc(Cl)c(N)nc3N)C2)cc1 (stereo not shown) [Example 5.1, 1-[3-(4-Carboxy-phenyl)-propyl]-3-[(3,5-diamino-6-chloro-pyrazine-2-carbonyl)-amino]-1-[3-(4-methoxy-phenyl)-propyl]-piperidinium] |
| 0.042 µM | COC(=O)CNC(=O)c1ccc(CCC[N+]2(CCCc3ccc(OC)cc3)CCCC(NC(=O)c3nc(Cl)c(N)nc3N)C2)cc1 (stereo not shown) [Example 5.2, 3-[(3,5-Diamino-6-chloro-pyrazine-2-carbonyl)-amino]-1-{3-[4-(methoxycarbonylmethylcarbamoyl)-phenyl]-propyl}-1-[3-(4-methoxy-phenyl)-propyl]-piperidinium chloride] |
| 0.02 µM | COC(=O)COc1ccc(CCC[N+]2(CCCc3ccc(OCC(=O)OC)cc3)CCCC(NC(=O)c3nc(Cl)c(N)nc3N)C2)cc1 (stereo not shown) [Example 6, 3-[(3,5-Diamino-6-chloro-pyrazine-2-carbonyl)-amino]-1,1-bis-[3-(4-methoxycarbonylmethoxy-phenyl)-propyl]-piperidinium trifluoroacetate] |
| > 1 µM | Nc1nc(N)c(C(=O)NC2CCC[N+](CCCc3ccc(OCC(=O)O)cc3)(CCCc3ccc(OCC(=O)O)cc3)C2)nc1Cl (stereo not shown) [Example 6.1, 1,1-Bis-[3-(4-carboxymethoxy-phenyl)-propyl]-3-[(3,5-diamino-6-chloro-pyrazine-2-carbonyl)-amino]-piperidinium chloride] |
